Experimental data taken from patent publication US8067042B1 (Mutual Pharmaceutical Company, Inc., priority 2007, dated 2011).
Where “and” joins values, the source holds several entries; their conditions need not be identical. Equal values may be shown once. Read-outs that look alike come from different tables or passages of the source. Marks after values point to notes of the source that are not given here.

What was measured:
CYP2D6 = CYP2D6 (Homo sapiens, UniProt P10635); assay type: in vitro ADME; conditions: 50 μM megestrol acetate, microsomes
CYP2D6, sequence (P10635 whole entry): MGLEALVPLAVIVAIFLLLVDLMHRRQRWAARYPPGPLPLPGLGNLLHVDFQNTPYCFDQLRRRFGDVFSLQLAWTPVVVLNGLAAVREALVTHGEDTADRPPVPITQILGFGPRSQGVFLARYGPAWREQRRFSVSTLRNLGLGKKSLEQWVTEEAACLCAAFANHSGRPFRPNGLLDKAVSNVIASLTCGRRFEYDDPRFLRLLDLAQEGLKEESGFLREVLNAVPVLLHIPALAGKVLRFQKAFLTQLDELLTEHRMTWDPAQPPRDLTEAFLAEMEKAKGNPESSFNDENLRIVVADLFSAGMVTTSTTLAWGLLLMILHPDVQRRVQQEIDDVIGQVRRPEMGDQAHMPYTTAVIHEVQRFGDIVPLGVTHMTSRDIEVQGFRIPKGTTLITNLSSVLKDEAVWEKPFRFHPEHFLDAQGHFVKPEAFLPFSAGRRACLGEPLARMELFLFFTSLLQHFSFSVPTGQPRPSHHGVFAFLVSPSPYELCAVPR

CYP2C9 = CYP2C9 (Homo sapiens, UniProt P11712); assay type: in vitro ADME; conditions: 50 μM megestrol acetate, microsomes
CYP2C9, sequence (P11712 whole entry): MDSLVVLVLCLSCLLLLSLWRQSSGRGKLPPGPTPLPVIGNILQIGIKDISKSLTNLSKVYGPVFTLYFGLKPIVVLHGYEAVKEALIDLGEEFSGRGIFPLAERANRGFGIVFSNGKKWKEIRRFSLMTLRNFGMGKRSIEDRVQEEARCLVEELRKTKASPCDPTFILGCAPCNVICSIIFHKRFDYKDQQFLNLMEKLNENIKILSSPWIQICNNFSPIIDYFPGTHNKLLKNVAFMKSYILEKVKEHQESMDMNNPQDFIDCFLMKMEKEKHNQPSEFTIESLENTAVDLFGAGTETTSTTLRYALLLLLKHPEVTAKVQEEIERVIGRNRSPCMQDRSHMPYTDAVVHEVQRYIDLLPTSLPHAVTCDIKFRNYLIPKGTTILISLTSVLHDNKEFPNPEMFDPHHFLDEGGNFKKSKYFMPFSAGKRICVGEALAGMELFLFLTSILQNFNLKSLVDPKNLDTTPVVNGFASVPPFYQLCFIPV

[1] = biological target: T1, Human CYP2B6 + P450 Reductase + Cytochrome b5 SUPERSOMES (Homo sapiens, UniProt P20813)
T1 sequence (P20813 1-491): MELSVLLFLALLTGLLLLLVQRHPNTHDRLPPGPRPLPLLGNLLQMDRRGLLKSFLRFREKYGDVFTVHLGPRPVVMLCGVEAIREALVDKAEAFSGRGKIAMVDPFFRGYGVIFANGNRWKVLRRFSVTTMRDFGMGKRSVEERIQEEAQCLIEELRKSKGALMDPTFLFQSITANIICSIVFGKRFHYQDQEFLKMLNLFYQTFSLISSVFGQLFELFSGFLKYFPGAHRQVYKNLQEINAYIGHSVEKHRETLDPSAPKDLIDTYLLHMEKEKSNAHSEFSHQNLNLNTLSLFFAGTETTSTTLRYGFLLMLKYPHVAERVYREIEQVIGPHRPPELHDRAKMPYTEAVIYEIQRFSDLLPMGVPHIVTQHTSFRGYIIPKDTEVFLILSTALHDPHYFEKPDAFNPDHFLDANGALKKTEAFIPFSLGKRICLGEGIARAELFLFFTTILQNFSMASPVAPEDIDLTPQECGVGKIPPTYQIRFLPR
Procedure: (§1) In this study, individual CYP isoforms expressed from human cDNA and P450 reductase cDNA were used (BD SUPERSOMES™ Enzymes, BD Biosciences Discovery Labware, Woburn, Mass.). SUPERSOMES™ are microsomes from baculovirus-infected insect cells containing singly expressed recombinant human CYP enzymes.
(§2) After a 5-minute preincubation, an appropriate amount of the appropriate buffer was added to the reaction mixtures to make the final volume of 0.5 mL. The incubations were continued for 60 minutes.
(§3) All incubation reactions were terminated by adding 0.5 mL methanol, and the samples were transferred to cryovials and stored at −70±10° C. until analysis.

[2] = biological target: T2, Human CYP1A2 + P450 Reductase SUPERSOMES (Homo sapiens, UniProt P05177)
T2 sequence (P05177 2-516 limits assumed): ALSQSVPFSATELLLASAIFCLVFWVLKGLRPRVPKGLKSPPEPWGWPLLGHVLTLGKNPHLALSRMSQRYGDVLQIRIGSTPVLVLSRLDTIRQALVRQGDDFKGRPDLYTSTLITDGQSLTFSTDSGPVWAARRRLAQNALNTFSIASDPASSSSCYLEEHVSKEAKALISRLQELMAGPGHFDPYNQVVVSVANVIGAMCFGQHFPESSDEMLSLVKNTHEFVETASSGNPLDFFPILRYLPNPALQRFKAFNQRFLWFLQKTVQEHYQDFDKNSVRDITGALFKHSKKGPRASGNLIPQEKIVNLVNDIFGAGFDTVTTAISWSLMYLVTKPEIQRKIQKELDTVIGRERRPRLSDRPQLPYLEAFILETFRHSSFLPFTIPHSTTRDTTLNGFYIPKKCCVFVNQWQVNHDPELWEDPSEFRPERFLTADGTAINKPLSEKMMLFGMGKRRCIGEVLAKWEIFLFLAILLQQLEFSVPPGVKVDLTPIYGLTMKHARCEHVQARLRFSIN
Procedure: as §1, §2, §3

[3] = biological target: Human CYP3A4 + P450 Reductase + Cytochrome b5 SUPERSOMES (Homo sapiens, UniProt P08684)
Human CYP3A4 + P450 Reductase + Cytochrome b5 SUPERSOMES, sequence (P08684 whole entry): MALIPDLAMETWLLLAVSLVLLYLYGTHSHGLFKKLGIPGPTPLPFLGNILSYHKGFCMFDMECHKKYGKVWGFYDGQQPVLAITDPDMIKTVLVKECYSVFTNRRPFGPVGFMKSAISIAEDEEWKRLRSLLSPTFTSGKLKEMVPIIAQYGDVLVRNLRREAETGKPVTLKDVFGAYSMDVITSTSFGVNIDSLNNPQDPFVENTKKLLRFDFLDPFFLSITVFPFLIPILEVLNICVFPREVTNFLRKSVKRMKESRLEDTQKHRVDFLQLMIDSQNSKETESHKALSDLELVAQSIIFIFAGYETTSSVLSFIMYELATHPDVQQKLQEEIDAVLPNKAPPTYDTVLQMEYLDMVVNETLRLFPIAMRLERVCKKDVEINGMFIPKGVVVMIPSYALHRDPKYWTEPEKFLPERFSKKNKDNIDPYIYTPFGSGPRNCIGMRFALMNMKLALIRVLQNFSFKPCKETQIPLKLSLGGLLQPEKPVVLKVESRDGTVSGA
Procedure: as §1, §2, §3

[4] = biological target: Human CYP2C19 + P450 Reductase + Cytochrome b5 SUPERSOMES (Homo sapiens, UniProt P33261)
Human CYP2C19 + P450 Reductase + Cytochrome b5 SUPERSOMES, sequence (P33261 whole entry): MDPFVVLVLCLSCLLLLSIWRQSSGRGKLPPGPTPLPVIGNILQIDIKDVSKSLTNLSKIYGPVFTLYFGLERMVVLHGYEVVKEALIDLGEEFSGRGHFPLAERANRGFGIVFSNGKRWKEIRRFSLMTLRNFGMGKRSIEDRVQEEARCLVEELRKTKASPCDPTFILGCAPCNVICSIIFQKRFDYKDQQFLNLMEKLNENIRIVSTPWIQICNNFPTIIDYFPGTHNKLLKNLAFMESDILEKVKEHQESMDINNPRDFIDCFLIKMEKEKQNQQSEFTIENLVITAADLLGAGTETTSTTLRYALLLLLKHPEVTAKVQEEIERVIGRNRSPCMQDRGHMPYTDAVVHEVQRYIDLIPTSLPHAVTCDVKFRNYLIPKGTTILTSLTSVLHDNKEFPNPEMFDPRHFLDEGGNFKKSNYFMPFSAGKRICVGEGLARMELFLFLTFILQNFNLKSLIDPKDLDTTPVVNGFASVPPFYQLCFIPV
Procedure: as §1, §2, §3

CYP3A4 = CYP3A4 (Homo sapiens, UniProt P08684); assay type: in vitro ADME; conditions: 50 μM megestrol acetate, microsomes, ketoconazole
CYP3A4, sequence (P08684 whole entry): as the sequence (P08684 whole entry) above

[5] = 5 μM, 5 pmol enzyme, listed as megestrol acetate
[6] = 5 μM, 20 pmol enzyme, listed as megestrol acetate
[7] = 50 μM, 5 pmol enzyme, listed as megestrol acetate
[8] = 50 μM, 20 pmol enzyme, listed as megestrol acetate

CC(=O)O[C@]1(C(C)=O)CC[C@H]2[C@@H]3C=C(C)C4=CC(=O)CC[C@]4(C)[C@H]3CC[C@@]21C [Megestrol Acetate, 17 α-acetyloxy-6-methylpregna-4,6-diene-3,20-dione]
difference in metabolism in the presence or absence of the inhibitor (LC/MS) (CYP2D6): no significant difference in metabolism
percent metabolized in presence vs absence of inhibitor (unpaired two-tailed t-test) (CYP2A6): less than that of the percentage of megestrol acetate metabolized in the absence of the inhibitor
metabolized in pooled human liver microsomes (CYP2A6; human, microsomes, 60 min, pH 7.4): > 20%
difference in metabolism in the presence or absence of the inhibitor (LC/MS) (CYP2C9): no significant difference in metabolism
Individual Raw Data Observed ([1]; 5 μM, 5 pmol enzyme): 2.221 µM and 2.3 µM and 2.31 µM
Percent of Parent Disappearance Individual ([1]; 5 μM, 5 pmol enzyme): −0.459% and −4.00% and −4.49%
Percent of Parent Disappearance Mean ± SD ([1]; 5 μM, 5 pmol enzyme): −2.98 ± 2.20%
Percent of Parent Disappearance Mean ± SD [1, 5]: 2.98±2.20%
Individual Raw Data Observed ([1]; 5 μM, 20 pmol enzyme): 2.474 µM and 2.381 µM and 2.385 µM
Percent of Parent Disappearance Individual ([1]; 5 μM, 20 pmol enzyme): −0.257% and 3.52% and 3.37%
Percent of Parent Disappearance Mean ± SD ([1]; 5 μM, 20 pmol enzyme): 2.21 ± 2.14%
Percent of Parent Disappearance Mean ± SD [1, 6]: 2.21±2.14%
Individual Raw Data Observed ([1]; 50 μM, 5 pmol enzyme): 20.88 µM and 21.85 µM and 25.99 µM
Percent of Parent Disappearance Individual ([1]; 50 μM, 5 pmol enzyme): 3.63% and −0.862% and −20.0%
Percent of Parent Disappearance Mean ± SD ([1]; 50 μM, 5 pmol enzyme): −5.73 ± 12.5%
Percent of Parent Disappearance Mean ± SD [1, 7]: 5.73±12.5%
Individual Raw Data Observed ([1]; 50 μM, 20 pmol enzyme): 21.46 µM and 22.47 µM and 22.35 µM
Percent of Parent Disappearance Mean ± SD ([1]; 50 μM, 20 pmol enzyme): 2.53 ± 2.43%
Percent of Parent Disappearance Mean ± SD [1, 8]: 2.53±2.43%
Individual Raw Data Observed ([2]; 5 μM, 5 pmol enzyme): 2.044 µM and 2.183 µM and 2.216 µM
Percent of Parent Disappearance Individual ([2]; 5 μM, 5 pmol enzyme): −2.76% and −9.79% and −11.4%
Percent of Parent Disappearance Mean ± SD ([2]; 5 μM, 5 pmol enzyme): −7.99 ± 4.60%
Percent of Parent Disappearance Mean ± SD [2, 5]: no disappearance of the substrate was detected
Individual Raw Data Observed ([2]; 5 μM, 20 pmol enzyme): 2.309 µM and 2.295 µM and 2.254 µM
Percent of Parent Disappearance Individual ([2]; 5 μM, 20 pmol enzyme): 5.51% and 6.07% and 7.78%
Percent of Parent Disappearance Mean ± SD ([2]; 5 μM, 20 pmol enzyme): 6.45 ± 1.18%
Percent of Parent Disappearance Mean ± SD [2, 6]: 6.45±1.18%
Individual Raw Data Observed ([2]; 50 μM, 5 pmol enzyme): 20.03 μM (2×) and 19.46 μM
Percent of Parent Disappearance Individual ([2]; 50 μM, 5 pmol enzyme): −5.05% and −5.02% and −2.05%
Percent of Parent Disappearance Mean ± SD ([2]; 50 μM, 5 pmol enzyme): −4.04 ± 1.72%
Percent of Parent Disappearance Mean ± SD [2, 7]: no disappearance of the substrate was detected
Individual Raw Data Observed ([2]; 50 μM, 20 pmol enzyme): 19.6 µM and 20.86 µM and 20.65 µM
Percent of Parent Disappearance Individual ([2]; 50 μM, 20 pmol enzyme): 11.0% and 5.29% and 6.24%
Percent of Parent Disappearance Mean ± SD ([2]; 50 μM, 20 pmol enzyme): 7.51 ± 3.06%
Percent of Parent Disappearance Mean ± SD [2, 8]: 7.51±3.06%
Individual Raw Data Observed ([3]; 5 μM, 5 pmol enzyme): 0.8008 µM and 0.7908 µM and 0.8634 µM
Percent of Parent Disappearance Individual ([3]; 5 μM, 5 pmol enzyme): 58.1% and 58.6% and 54.8%
Percent of Parent Disappearance Mean ± SD ([3]; 5 μM, 5 pmol enzyme): 57.2 ± 02.06%
Percent of Parent Disappearance Mean ± SD [3, 5]: 57.2±2.06%
Individual Raw Data Observed ([3]; 5 μM, 20 pmol enzyme): 0.00000 ^a μM
Percent of Parent Disappearance Individual ([3]; 5 μM, 20 pmol enzyme): >93.6%
Percent of Parent Disappearance Mean ± SD ([3]; 5 μM, 20 pmol enzyme): >93.6 ± 0.000%
Percent of Parent Disappearance Mean ± SD [3, 6]: > 93.6±0.000%
Individual Raw Data Observed ([3]; 50 μM, 5 pmol enzyme): 14.3 µM and 14.66 µM and 14.98 µM
Percent of Parent Disappearance Individual ([3]; 50 μM, 5 pmol enzyme): 20.9% and 18.9% and 17.1%
Percent of Parent Disappearance Mean ± SD ([3]; 50 μM, 5 pmol enzyme): 18.9 ± 1.90%
Percent of Parent Disappearance Mean ± SD [3, 7]: 18.9±1.90%
Individual Raw Data Observed ([3]; 50 μM, 20 pmol enzyme): 5.336 µM and 5.631 µM and 6.813 µM
Percent of Parent Disappearance Individual ([3]; 50 μM, 20 pmol enzyme): 73.5% and 72.0% and 66.1%
Percent of Parent Disappearance Mean ± SD ([3]; 50 μM, 20 pmol enzyme): 70.5 ± 3.89%
Percent of Parent Disappearance Mean ± SD [3, 8]: 70.5±3.89%
Individual Raw Data Observed ([4]; 5 μM, 5 pmol enzyme): 2.139 µM and 2.028 µM and 1.969 µM
Percent of Parent Disappearance Individual ([4]; 5 μM, 5 pmol enzyme): −8.12% and −2.56% and 0.430%
Percent of Parent Disappearance Mean ± SD ([4]; 5 μM, 5 pmol enzyme): −3.42 ± 4.34%
Percent of Parent Disappearance Mean ± SD [4, 5]: 3.42±4.34%
Individual Raw Data Observed ([4]; 5 μM, 20 pmol enzyme): 2.14 µM and 2.225 µM and 2.128 µM
Percent of Parent Disappearance Individual ([4]; 5 μM, 20 pmol enzyme): 2.70% and −1.16% and 3.25%
Percent of Parent Disappearance Mean ± SD ([4]; 5 μM, 20 pmol enzyme): 1.60 ± 2.40%
Percent of Parent Disappearance Mean ± SD [4, 6]: 1.60±2.40%
Individual Raw Data Observed ([4]; 50 μM, 5 pmol enzyme): 21.34 µM and 20.03 µM and 19.86 µM
Percent of Parent Disappearance Individual ([4]; 50 μM, 5 pmol enzyme): −9.66% and −2.96% and −2.05%
Percent of Parent Disappearance Mean ± SD ([4]; 50 μM, 5 pmol enzyme): −4.89 ± 4.16%
Percent of Parent Disappearance Mean ± SD [4, 7]: 4.89±4.16%
Individual Raw Data Observed ([4]; 50 μM, 20 pmol enzyme): 15.71 µM and 16.25 µM and 16.51 µM
Percent of Parent Disappearance Individual ([4]; 50 μM, 20 pmol enzyme): −0.956% and −4.44% and −6.11%
Percent of Parent Disappearance Mean ± SD ([4]; 50 μM, 20 pmol enzyme): −3.84 ± 2.63%
Percent of Parent Disappearance Mean ± SD [4, 8]: 3.84±2.63%
difference in metabolism in the presence or absence of the inhibitor (LC/MS) (CYP3A4): a significant difference in metabolism
